ChEMBL document CHEMBL1938271, “Dimeric ent-kaurane diterpenoids from Isodon excisus” (J Nat Prod, 2011)
pIC50: −log10 of the molar value.

System: RAW264.7
Test: Antiinflammatory activity in mouse RAW264.7 cells assessed as inhibition of LPS-stimulated nitric oxide production
Assay type: functional, cell-based

SMILES	pIC50
CC(=O)O[C@H]1C[C@H]2C[C@@]3(C[C@H](O)[C@@H]4C(C)(C)[C@@H](OC(C)=O)C[C@H](O)[C@@]4(C)[C@H]13)C(=O)O[C@]1(CCC2=O)C(=O)[C@]23C[C@@H]1C[C@H](OC(C)=O)[C@H]2[C@@]1(C)[C@H]([C@@H](O)C3)C(C)(C)[C@@H](OC(C)=O)C[C@@H]1O (relative stereo)	< 4.30
CC(=O)O[C@H]1C[C@H]2C[C@@]3(C[C@H](O)[C@@H]4C(C)(C)[C@@H](OC(C)=O)C[C@H](O)[C@@]4(C)[C@H]13)C(=O)[C@]21CCC2=C(O1)[C@]13C[C@@H]2C[C@H](OC(C)=O)[C@H]1[C@@]1(C)[C@H]([C@@H](O)C3)C(C)(C)[C@@H](OC(C)=O)C[C@@H]1O (relative stereo)	< 4.30
CC(=O)O[C@H]1C[C@H]2C[C@@]3(CC(=O)[C@@H]4C(C)(C)[C@@H](OC(C)=O)C[C@H](O)[C@@]4(C)[C@H]13)C(=O)O[C@]1(CCC2=O)C(=O)[C@]23C[C@@H]1C[C@H](OC(C)=O)[C@H]2[C@@]1(C)[C@H]([C@@H](O)C3)C(C)(C)[C@@H](OC(C)=O)C[C@@H]1O (relative stereo)	< 4.30
CC(=O)O[C@H]1C[C@H]2C[C@@]3(CC(=O)[C@@H]4C(C)(C)[C@@H](OC(C)=O)C[C@H](O)[C@@]4(C)[C@H]13)C(=O)[C@]21CCC(=O)[C@H]2C[C@H](OC(C)=O)[C@@H]3[C@](C2)(C[C@H](O)[C@@H]2C(C)(C)[C@@H](OC(C)=O)C[C@H](O)[C@]23C)C(=O)O1 (relative stereo)	< 4.30
CC(=O)O[C@H]1C[C@H]2C[C@@]3(C[C@H](O)[C@@H]4C(C)(C)[C@@H](OC(C)=O)C[C@H](O)[C@@]4(C)[C@H]13)C(=O)[C@]2(O)CC[C@@]1(O)C(=O)[C@]23C[C@@H]1C[C@H](O)[C@H]2[C@]1(C)[C@@H](OC(C)=O)C[C@H](OC(C)=O)C(C)(C)[C@H]1[C@@H](O)C3 (relative stereo)	< 4.30
N=C(N)NN [PIMAGEDINE]	4.56
